In patent publication US20220315554A1, “COMPOUNDS COMPRISING A […] LIGAND AND USE THEREOF” (priority 2019, published 2022):
Numbered stars: 1 amine (or outer) side, 2 acyl side, 3 side chain; on linkers, the order of the positions; unused ones are H or OH. Bridge positions count the residues as written; N and C are the ends. Square brackets hold non-standard residues; d marks the D form. Peptide text beside a SMILES is read from it. * marks the point of attachment. ξ: configuration not given here. X4 = O=C1CN2CCN3CCN(CC(=O)N4CCN(Cc5cc(C[*:1])cc(C[*:2])c5)CC4)CCN(CC2)CC(=O)[O][In]([O]1)[O]C(=O)C3; X1 = O=C(O)CN1CCN(CC(=O)O)CCN(CC(=O)N2CCN(Cc3cc(C[*:1])cc(C[*:2])c3)CC2)CCN(CC(=O)O)CC1; X2 = O=C(O)CN1CCN(CC(=O)O)CCN(CC(=O)NCCCOCCOCCOCCCN*)CCN(CC(=O)O)CC1; mXylylene = c1cc(C[*:1])cc(C[*:2])c1; Suc = O=C(CCC(=O)[*:2])[*:1]; 4Amb = NCc1ccc(C(=O)O)cc1; Nle = CCCC[C@H](N)C(=O)O; Hexanoyl = CCCCCC(=O)*; ξD = NC(CC(=O)O)C(=O)O

Assays:
Human recombinant FAP [1] = molecular target: T1, Human recombinant FAP (Homo sapiens, UniProt Q12884); assay: Surface plasmon resonance (Biacore) assay; type: binding
T1 sequence (Q12884 1-760): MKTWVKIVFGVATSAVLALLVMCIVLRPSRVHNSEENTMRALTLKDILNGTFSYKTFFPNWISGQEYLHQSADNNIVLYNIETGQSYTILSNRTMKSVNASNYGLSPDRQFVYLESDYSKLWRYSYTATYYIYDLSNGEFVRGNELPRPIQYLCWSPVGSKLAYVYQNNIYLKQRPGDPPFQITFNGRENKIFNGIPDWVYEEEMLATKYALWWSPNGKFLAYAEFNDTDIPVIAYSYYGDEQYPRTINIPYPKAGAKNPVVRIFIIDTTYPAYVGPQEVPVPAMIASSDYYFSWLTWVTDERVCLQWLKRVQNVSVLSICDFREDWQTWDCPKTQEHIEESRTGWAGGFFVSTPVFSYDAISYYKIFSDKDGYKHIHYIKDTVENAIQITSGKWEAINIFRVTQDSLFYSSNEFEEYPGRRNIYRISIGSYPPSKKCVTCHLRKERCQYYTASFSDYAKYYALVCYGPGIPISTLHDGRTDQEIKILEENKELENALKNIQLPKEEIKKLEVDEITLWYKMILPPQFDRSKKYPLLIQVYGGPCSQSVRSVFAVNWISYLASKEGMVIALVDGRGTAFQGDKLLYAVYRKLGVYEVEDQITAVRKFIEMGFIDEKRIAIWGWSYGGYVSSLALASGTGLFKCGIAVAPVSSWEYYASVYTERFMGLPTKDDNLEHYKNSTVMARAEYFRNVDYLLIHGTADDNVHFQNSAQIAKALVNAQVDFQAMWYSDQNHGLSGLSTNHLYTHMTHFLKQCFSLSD

[2] = molecular target: T2, FAP-expressing human WI-38 fibroblasts (Homo sapiens, UniProt Q12884); assay: Competitive FACS binding assay; details: pIC50 Category (FACS), competition with 3 nM Cy5-labeled compound, WI-38 fibroblasts, 4° C., 1 hour
T2 construct: FAP-expressing human WI-38 fibroblasts (ECACC) were cultured in EMEM; host or cells: WI-38 human fibroblasts
T2 sequence (Q12884 1-760): T1 sequence (Q12884 1-760)
Method: Cells were analyzed in an Attune NxT flow cytometer. […]

[3] = Plasma stability assay, mouse plasma; type: in vitro ADME; details: 37° C., read-out: % intact compound remaining after incubation, Mouse plasma; for remaining at 24 h, 9.8 µM: 24 h incubation; for remaining at 4 h, 9.8 µM: 4 h incubation
[4] = Plasma stability assay, human plasma; type: in vitro ADME; details: 24 h incubation, 37° C., read-out: % intact compound remaining after incubation, Human plasma
recombinant human PREP = molecular target: T3, recombinant human PREP (Homo sapiens, UniProt P48147); assay: PREP protease activity assay; type: biochemical
T3 construct: purchased R&D systems 4308-SE
T3 sequence (P48147 1-710): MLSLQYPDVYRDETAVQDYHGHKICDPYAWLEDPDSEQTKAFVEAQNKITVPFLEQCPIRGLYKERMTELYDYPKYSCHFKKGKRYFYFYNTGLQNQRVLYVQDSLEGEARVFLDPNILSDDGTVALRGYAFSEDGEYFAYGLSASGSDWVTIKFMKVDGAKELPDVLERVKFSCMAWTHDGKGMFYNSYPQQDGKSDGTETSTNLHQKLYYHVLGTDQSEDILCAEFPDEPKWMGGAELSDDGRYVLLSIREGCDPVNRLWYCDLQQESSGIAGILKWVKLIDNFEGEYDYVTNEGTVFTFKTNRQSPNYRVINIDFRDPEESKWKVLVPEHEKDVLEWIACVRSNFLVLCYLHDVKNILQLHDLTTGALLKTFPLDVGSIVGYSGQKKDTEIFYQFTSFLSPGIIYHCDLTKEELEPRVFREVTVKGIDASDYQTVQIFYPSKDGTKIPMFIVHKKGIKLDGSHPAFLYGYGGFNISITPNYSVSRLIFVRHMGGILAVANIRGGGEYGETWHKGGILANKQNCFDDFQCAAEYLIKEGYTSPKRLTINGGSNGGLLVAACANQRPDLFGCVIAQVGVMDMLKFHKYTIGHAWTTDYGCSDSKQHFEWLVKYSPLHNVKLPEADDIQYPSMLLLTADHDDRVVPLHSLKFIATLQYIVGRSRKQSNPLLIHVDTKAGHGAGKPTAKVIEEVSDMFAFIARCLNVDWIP

Human recombinant FAP [5] = molecular target: T1, Human recombinant FAP; assay: FRET-based FAP protease activity assay; type: biochemical; design: purchased R&D systems 3715-SE; details: pIC50 Category (Activity), recombinant human FAP, FRET substrate, 37° C.
Recombinant human DPP4 = molecular target: T4, Recombinant human DPP4 (Homo sapiens, UniProt P27487); assay: DPP4 protease activity assay; type: biochemical
T4 construct: purchased R&D systems 9168-SE

in vitro = details: rat, plasma
hERG potassium channel = hERG potassium channel (Homo sapiens, UniProt Q12809); assay: in vitro
[6] = test system: Ca2+ channel (L, dihydropyridine site); details: 10 μM
NMDA = details: 10 μM
BZD (central) = details: 10 μM
proteases [7] = molecular target: T5, proteases (Hepatitis C virus genotype 1a, UniProt P27958, D1194V); assay: biochemical; details: read-out: Percentage inhibition (%)
T5 construct: BPS Biosciences (contract assay)

proteases [8] = molecular target: T6, proteases (Hepatitis C virus genotype 1b, UniProt P26663, D1194V); assay: biochemical; details: read-out: Percentage inhibition (%)
T6 construct: BPS Biosciences (contract assay)

proteases [9] = molecular target: T7, proteases (Hepatitis C virus genotype 1b, UniProt P26663, R1181K); assay: biochemical; details: read-out: Percentage inhibition (%)
T7 construct: BPS Biosciences (contract assay)

proteases [10] = molecular target: T8, proteases (Hepatitis C virus genotype 1b, UniProt P26663, R1181Q); assay: biochemical; details: read-out: Percentage inhibition (%)
T8 construct: BPS Biosciences (contract assay)

proteases [11] = molecular target: T9, proteases (Hepatitis C virus genotype 1b, UniProt P26663); assay: biochemical; details: read-out: Percentage inhibition (%)
T9 construct: BPS Biosciences (contract assay)

AR (h) = AR (h) (Homo sapiens, UniProt P10275, T878A); assay: biochemical; details: read-out: % Inhibition of Specific Binding
Na+ channel (site 2) = assay: SafetyScreen44: Na+ channel (site 2) (antagonist radioligand); type: binding; details: 10 μM

Row | Compound | Kd (Human recombinant FAP [1]) [nM] | IC50 [2] [nM] | remaining at 24 h, 9.8 µM [3] [%] | remaining at 24 h, 9.8 µM [4] [%] | IC50 (recombinant human PREP) [nM] | IC50 (Human recombinant FAP [5]) [nM] | IC50 (Recombinant human DPP4) [nM] | remaining at 24 h, 9.8 µM (in vitro) [%] | further results
1 | CCCC[C@H](NC(=O)CCC(=O)NCCCOCCOCCOCCCNC(=O)CN1CCN(CC(=O)O)CCN(CC(=O)O)CCN(CC(=O)O)CC1)C(=O)N[C@H]1CSCc2cccc(c2)CSC[C@@H](C(=O)NCCC(=O)O)NC(=O)[C@H](Cc2ccccc2)NC(=O)[C@H](CCC(N)=O)NC(=O)[C@H]([C@@H](C)O)NC(=O)[C@@H]2CCCN2C(=O)[C@@H]2CCCN2C1=O [3BP-3398, DOTA-Ttds-Nle-[Cys(3MeBn)-Pro-Pro-Thr-Gln-Phe-Cys]-Bal-OH] | < 10 | < 10 | 94 | 99 | > 1000 | < 10 | > 1000 |  | 
2 | CCCCCC(=O)N[C@H]1CSCc2cc(cc(CN3CCN(C(=O)CN4CCN5CCN6CCN(CC4)CC(=O)[O][In]([O]C(=O)C6)[O]C(=O)C5)CC3)c2)CSC[C@@H](C(=O)N[C@@H](CC(=O)O)C(N)=O)NC(=O)[C@H](Cc2ccccc2)NC(=O)[C@H](CCC(N)=O)NC(=O)[C@H]([C@@H](C)O)NC(=O)[C@@H]2CCCN2C(=O)[C@@H]2CCCN2C1=O [3BP-3590, Indium-Complex of Hex-[Cys(tMeBn(DOTA-PP))-Pro-Pro-Thr-Gln-Phe-Cys]-Asp-NH2] (Hexanoyl-CPPTQFCD-NH2; linker 1-7 via X4) | < 10 | < 10 | 100 | 94 |  | < 10 |  | 100 | 
3 | CCCCCC(=O)N[C@H]1CSCc2cc(CSCCNC(=O)CN3CCN4CCN5CCN(CC3)CC(=O)[O][Lu]([O]C(=O)C4)[O]C(=O)C5)cc(c2)CSC[C@@H](C(=O)O)NC(=O)[C@H](Cc2ccccc2)NC(=O)[C@H](CCC(N)=O)NC(=O)[C@H]([C@@H](C)O)NC(=O)[C@@H]2CCCN2C(=O)[C@@H]2CCCN2C1 [3BP-3624, Lutetium-Complex of Hex-[Cys(tMeBn(DOTA-AET))-Pro-Pro-Thr-Gln-Phe-Cys]-OH] | < 10 | < 10 | 100 | 100 |  | < 10 |  | 100 | 
4 | CCCCCC(=O)N[C@H]1CSCc2cccc(c2)CSC[C@@H](C(=O)N[C@@H](CCCCNC(=O)CN2CCN(CC(=O)O)CCN(CC(=O)O)CCN(CC(=O)O)CC2)CC(=O)O)NC(=O)[C@H](Cc2ccccc2)NC(=O)[C@H](CCC(N)=O)NC(=O)[C@H]([C@@H](C)O)NC(=O)[C@@H]2CCCN2C(=O)[C@@H]2CCCN2C1=O [3BP-3397, Hex-[Cys(3MeBn)-Pro-Pro-Thr-Gln-Phe-Cys]-Bhk(DOTA)-OH] | < 10 | < 10 | 92 | 100 | > 1000 | < 10 | > 1000 |  | 
5 | CCCC[C@H](NC(=O)CCC(=O)NCCCOCCOCCOCCCNC(=O)CN1CCN(CC(=O)O)CCN(CC(=O)O)CCN(CC(=O)O)CC1)C(=O)N[C@H]1CSCc2cccc(c2)CSC[C@@H](C(=O)N[C@@H](CC(=O)O)C(=O)NCc2ccc(C(=O)N[C@@H](CCCNC(=N)N)C(N)=O)cc2)NC(=O)[C@H](Cc2ccccc2)NC(=O)[C@H](CCC(=O)O)NC(=O)[C@H]([C@@H](C)O)NC(=O)[C@@H]2CCCN2C(=O)[C@@H]2CCCN2C1=O [3BP-3321, DOTA-Ttds-Nle-[Cys(3MeBn)-Pro-Pro-Thr-Glu-Phe-Cys]-Asp-Pamb-Arg-NH2] ({X2-Suc}-[Nle]CPPTEFCD[4Amb]R-NH2; linker 2-8 via mXylylene) | < 10 | < 10 |  |  | > 1000 | < 10 | > 1000 |  | remaining at 4 h, 9.8 µM [3]: 94%
6 | CCCC[C@H](NC(=O)CCC(=O)NCCCOCCOCCOCCCNC(=O)CN1CCN(CC(=O)O)CCN(CC(=O)O)CCN(CC(=O)O)CC1)C(=O)N[C@H]1CSCc2cccc(c2)CSC[C@@H](C(=O)NC(CC(=O)O)C(N)=O)NC(=O)[C@H](Cc2ccccc2)NC(=O)[C@H](CCC(=O)O)NC(=O)[C@H]([C@@H](C)O)NC(=O)[C@@H]2CCCN2C(=O)[C@@H]2CCCN2C1=O (stereo partly drawn) [3BP-3320, DOTA-Ttds-Nle-[Cys(3MeBn)-Pro-Pro-Thr-Glu-Phe-Cys]-Asp-NH2] ({X2-Suc}-[Nle]CPPTEFC[ξD]-NH2; linker 2-8 via mXylylene) | < 10 | 10 to 79.4 |  |  | > 1000 | < 10 | > 1000 |  | remaining at 4 h, 9.8 µM [3]: 75%
7 | alpha-dendrotoxin |  |  |  |  |  |  |  |  | Ki (KV channel; read-out: Ki Ref, reference compound (positive control)): 0.097 nM
8 | CCCCCC(=O)N[C@H]1CSCc2cc(cc(CN3CCN(C(=O)CN4CCN(CC(=O)O)CCN(CC(=O)O)CCN(CC(=O)O)CC4)CC3)c2)CSC[C@@H](C(=O)N[C@@H](CC(=O)O)C(N)=O)NC(=O)[C@H](Cc2ccccc2)NC(=O)[C@H](CCC(N)=O)NC(=O)[C@H]([C@@H](C)O)NC(=O)[C@@H]2CCCN2C(=O)[C@@H]2CCCN2C1=O [3BP-3407, Hex-[Cys(tMeBn(DOTA-PP))-Pro-Pro-Thr-Gln-Phe-Cys]-Asp-NH2] (Hexanoyl-CPPTQFCD-NH2; linker 1-7 via X1) | < 10 | < 10 | 79 | 100 | > 1000 | < 10 | > 1000 | 100 | inhibition at 10 µM (hERG potassium channel): 2%; % Inhibition of Specific Binding [6]: 42%; % Inhibition of Specific Binding (NMDA): 9%; % Inhibition of Specific Binding (BZD (central)): −9%; inhibition at 1 µM (proteases [7]): 1%; inhibition at 10 µM (proteases [7]): -68%; inhibition at 1 µM (proteases [8]): 1%; inhibition at 10 µM (proteases [8]): -6%; inhibition at 1 µM (proteases [9]): -2%; inhibition at 10 µM (proteases [9]): 5%; inhibition at 1 µM (proteases [10]): 0%; inhibition at 10 µM (proteases [10]): 2%; inhibition at 1 µM (proteases [11]): 1%; inhibition at 10 µM (proteases [11]): 5%; % Inhibition of Specific Binding (KV channel; 10 μM): −5%; inhibition at 10 µM (AR (h)): 3%; % Inhibition of Specific Binding (Na+ channel (site 2)): −7%
